The numbers were not newly measured in patent publication US20050042712A1, “Methods, compositions and instruments to predict antimicrobial or preservative activity” (ADVANCED MEDICAL OPTICS, INC., priority 2003, published 2005), which cites them from elsewhere.

Read-outs that look alike come from different tables or passages of the source.

For orientation: pKa means the negative logarithm of the acid dissociation constant. As for `O=C1OC2(c3ccccc31)c1cc(Br)c(O)c(Br)c1Oc1c2cc(Br)c(O)c1Br.[Na].[Na]` [Eosin Y, 2′,4′,5′,7′-Tetrabromo-3′,6′-dihydroxyspiro(isobenzofuran-1(3H),9′-(9H)xanthen)-3-one disodium salt], the pKa is, setting by setting: (carboxyphenyl group) 2.7; (phenolate anion) 3.6. Further, under “water”, the solubility in water result was “freely soluble in water”.
